Target: Kappa-type opioid receptor (Homo sapiens) (UniProt P41145)
Assay: kappa opioid receptor activation potency – imaging, image-based, SAR follow-up (AID 2359)
Conditions: KOR agonist image-based assay (receptor translocation imaging)

Kappa-type opioid receptor (Homo sapiens), sequence (P41145 whole entry, looked up): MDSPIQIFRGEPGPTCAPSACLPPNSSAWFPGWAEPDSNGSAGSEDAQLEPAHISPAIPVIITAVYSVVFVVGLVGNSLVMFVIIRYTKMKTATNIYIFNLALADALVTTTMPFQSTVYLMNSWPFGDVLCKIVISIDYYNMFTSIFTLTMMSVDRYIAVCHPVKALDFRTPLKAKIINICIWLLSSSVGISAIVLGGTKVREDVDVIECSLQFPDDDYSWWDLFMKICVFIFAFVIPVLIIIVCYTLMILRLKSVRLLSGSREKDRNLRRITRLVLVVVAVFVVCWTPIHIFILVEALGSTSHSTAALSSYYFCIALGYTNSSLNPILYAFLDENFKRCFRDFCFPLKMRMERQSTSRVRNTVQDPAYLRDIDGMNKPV

Structure (SMILES)	EC50
CCCCN(Cc1cc2cc(C)ccc2[nH]c1=O)C(=O)c1ccccn1	4.93 µM
COc1ccc(CN(Cc2ccccn2)C(=O)CN2C(=O)COc3ccccc32)cc1	10.1 µM

Source: PubChem BioAssay AID2359 (Sanford-Burnham Center for Chemical Genomics, 2010)
